From US7829568B2, “Substituted 5,6,7,8-tetrahydroimidazo[1,2-a]pyridin-2-ylamine compounds and their use for producing drugs” (Gruenenthal GmbH, priority 2005, dated 2010)

System: batrachotoxin (BTX) binding site of the sodium channel
Assay: Affinity to the batrachotoxin (BTX) binding site of the sodium channel
Parameters: species or system rat
Conditions: [3H]-batrachotoxinin A20 α-benzoate 10 nM; synaptosomes from rat cerebral cortex; test concentration not given

Q: Which “BTX inhibition (rat) (% inhibition)” value does the source give for `CCCCN(C(=O)c1cccc(Cl)c1)c1nc2n(c1C(=O)N(C)C1CCN(Cc3c(Cl)cccc3Cl)C1)CCCC2` (centres unmarked) [Example 87, 2-[butyl-(3-chloro-benzoyl)-amino]-5,6,7,8-tetrahydro-imidazo[1,2-a]pyridine-3-carboxylic acid [1-(2,6-dichloro-benzyl)-pyrrolidin-3-yl]-methyl-amide] here?
A: The value was 93%.

Q: `CCCCN(C(=O)c1cccc(Cl)c1)c1nc2n(c1C(=O)N1CCC(O)(c3cccc(C(F)(F)F)c3)CC1)CCCC2` [Example 175, N-butyl-3-chloro-N-{3-[4-hydroxy-4-(3-trifluoromethyl-phenyl)-piperidine-1-carbonyl]-5,6,7,8-tetrahydro-imidazo[1,2-a]pyridin-2-yl}-benzamide] was tested. Which “BTX inhibition (rat) (% inhibition)” value did it give?
A: The value was 65%.

Q: With `CCCCN(C(=O)c1cccc(Cl)c1)c1nc2n(c1C(=O)NCCc1ccc(Oc3ccccc3)cc1)CCCC2` [Example 134, 2-[butyl-(3-chloro-benzoyl)-amino]-5,6,7,8-tetrahydro-imidazo[1,2-a]pyridine-3-carboxylic acid [2-(4-phenoxy-phenyl)-ethyl]-amide] as the molecule, how does the “BTX inhibition (rat) (% inhibition)” value read?
A: The value was 93%.

Q: How did the “BTX inhibition (rat) (% inhibition)” value turn out when `CCCCN(C(=O)c1cccc(Cl)c1)c1nc2n(c1C(=O)NC(C)c1cccc3ccccc13)CCCC2` (centres unmarked) [Example 39, 2-[butyl-(3-chloro-benzoyl)-amino]-5,6,7,8-tetrahydro-imidazo[1,2-a]pyridine-3-carboxylic acid (1-naphthalen-1-yl-ethyl)-amide] was run?
A: The value was 47%.

Q: How did the “BTX inhibition (rat) (% inhibition)” value turn out when `CCCCN(C(=O)c1ccc(F)c(F)c1)c1nc2n(c1C(=O)NCC1COc3ccccc3O1)CCCC2` (centres unmarked) [Example 96, 2-[butyl-(3,4-difluoro-benzoyl)-amino]-5,6,7,8-tetrahydro-imidazo[1,2-a]pyridine-3-carboxylic acid (2,3-dihydro-benzo[1,4]dioxin-2-ylmethyl)-amide] was run?
A: The value was 33%.

Q: Which “BTX inhibition (rat) (% inhibition)” value does the source give for `CN(C(=O)Cc1ccccc1)c1nc2n(c1C(=O)N1CCN(CCCc3ccccc3)CC1)CCCC2` [Example 176, N-methyl-2-phenyl-N-{3-[4-(3-phenyl-propyl)-piperazine-1-carbonyl]-5,6,7,8-tetrahydro-imidazo[1,2-a]pyridin-2-yl}-acetamide] here?
A: Its value is 71%.

Q: For `CN(C(=O)c1cccc(Cl)c1)c1nc2n(c1C(=O)N1CCN(Cc3ccc4c(c3)OCO4)CC1)CCCC2` [Example 45, N-[3-(4-benzo[1,3]dioxol-5-ylmethyl-piperazine-1-carbonyl)-5,6,7,8-tetrahydro-imidazo[1,2-a]pyridin-2-yl]-3-chloro-N-methyl-benzamide], which “BTX inhibition (rat) (% inhibition)” value is on record?
A: The value was 41%.

Q: With `CN(C(=O)c1cccc(Cl)c1)c1nc2n(c1C(=O)N1CCC(O)(c3cccc(C(F)(F)F)c3)CC1)CCCC2` [Example 81, 3-chloro-N-{3-[4-hydroxy-4-(3-trifluoromethyl-phenyl)-piperidine-1-carbonyl]-5,6,7,8-tetrahydro-imidazo[1,2-a]pyridin-2-yl}-N-methyl-benzamide] as the molecule, how does the “BTX inhibition (rat) (% inhibition)” value read?
A: Its value is 33%.

Q: How did the “BTX inhibition (rat) (% inhibition)” value turn out when `CCCCN(C(=O)c1cccc(Cl)c1)c1nc2n(c1C(=O)NCc1cccc(F)c1)CCCC2` [Example 158, 2-[butyl-(3-chloro-benzoyl)-amino]-5,6,7,8-tetrahydro-imidazo[1,2-a]pyridine-3-carboxylic acid 3-fluoro-benzylamide] was run?
A: Its value is 33%.

Q: For `CN(C(=O)c1cccc2ccccc12)c1nc2n(c1C(=O)NCc1cccc(Cl)c1Cl)CCCC2` [Example 33, 2-[methyl-(naphthalene-1-carbonyl)-amino]-5,6,7,8-tetrahydro-imidazo[1,2-a]pyridine-3-carboxylic acid 2,3-dichlor-benzylamide], which “BTX inhibition (rat) (% inhibition)” value is on record?
A: Its value is 49%.

Q: For `CCCCN(C(=O)c1ccc(F)c(F)c1)c1nc2n(c1C(=O)NCCC(c1ccccc1)c1ccccc1)CCCC2` [Example 180, 2-[butyl-(3,4-difluoro-benzoyl)-amino]-5,6,7,8-tetrahydro-imidazo[1,2-a]pyridine-3-carboxylic acid (3,3-diphenyl-propyl)-amide], which “BTX inhibition (rat) (% inhibition)” value is on record?
A: The value was 62%.

Q: With `CCCCN(C(=O)c1cccc(Cl)c1)c1nc2n(c1C(=O)NC(COC)Cc1ccccc1)CCCC2` (centres unmarked) [Example 86, 2-[butyl-(3-chloro-benzoyl)-amino]-5,6,7,8-tetrahydro-imidazo[1,2-a]pyridine-3-carboxylic acid (1-methoxymethyl-2-phenyl-ethyl)-amide] as the molecule, how does the “BTX inhibition (rat) (% inhibition)” value read?
A: The value was 42%.

Q: With `CN(C(=O)c1cccc2ccccc12)c1nc2n(c1C(=O)NC1CCN(Cc3ccc(C(F)(F)F)cc3)C1)CCCC2` (centres unmarked) [Example 30, 2-[methyl-(naphthalene-1-carbonyl)-amino]-5,6,7,8-tetrahydro-imidazo[1,2-a]pyridine-3-carboxylic acid [1-(4-trifluoromethyl-benzyl)-pyrrolidin-3-yl]-amide] as the molecule, how does the “BTX inhibition (rat) (% inhibition)” value read?
A: Its value is 85%.

Q: Which “BTX inhibition (rat) (% inhibition)” value does the source give for `CN(C(=O)c1ccccc1)c1nc2n(c1C(=O)N1CCN(c3ccc(C(F)(F)F)cc3)CC1)CCCC2` [Example 167, N-methyl-N-{3-[4-(4-trifluoromethyl-phenyl)-piperazine-1-carbonyl]-5,6,7,8-tetrahydro-imidazo[1,2-a]pyridin-2-yl}-benzamide] here?
A: The value was 44%.

Q: How did the “BTX inhibition (rat) (% inhibition)” value turn out when `CCCCN(C(=O)c1cccc(Cl)c1)c1nc2n(c1C(=O)N1CCN(c3ccccn3)CC1)CCCC2` [Example 72, N-butyl-3-chloro-N-[3-(4-pyridin-2-yl-piperazine-1-carbonyl)-5,6,7,8-tetrahydro-imidazo[1,2-a]pyridin-2-yl]-benzamide] was run?
A: Its value is 39%.

Q: `CCCCN(C(=O)c1ccc(F)c(F)c1)c1nc2n(c1C(=O)NCCC(C)(C)C)CCCC2` [Example 171, 2-[butyl-(3,4-difluoro-benzoyl)-amino]-5,6,7,8-tetrahydro-imidazo[1,2-a]pyridine-3-carboxylic acid (3,3-dimethyl-butyl)-amide] was tested. Which “BTX inhibition (rat) (% inhibition)” value did it give?
A: The value was 47%.

Q: How did the “BTX inhibition (rat) (% inhibition)” value turn out when `CCCCN(C(=O)c1cccc(Cl)c1)c1nc2n(c1C(=O)NCc1cccc(C)c1C)CCCC2` [Example 133, 2-[butyl-(3-chloro-benzoyl)-amino]-5,6,7,8-tetrahydro-imidazo[1,2-a]pyridine-3-carboxylic acid 2,3-dimethyl-benzylamide] was run?
A: Its value is 34%.

Q: How did the “BTX inhibition (rat) (% inhibition)” value turn out when `CCCCN(C(=O)c1cccc(Cl)c1)c1nc2n(c1C(=O)NC1CCCCC1)CCCC2` [Example 120, 2-[butyl-(3-chloro-benzoyl)-amino]-5,6,7,8-tetrahydro-imidazo[1,2-a]pyridine-3-carboxylic acid cyclohexylamide] was run?
A: The value was 61%.

Q: Which “BTX inhibition (rat) (% inhibition)” value does the source give for `CCCCN(C(=O)c1cccc(Cl)c1)c1nc2n(c1C(=O)NC(C)c1ccc3ccccc3c1)CCCC2` (centres unmarked) [Example 141, 2-[butyl-(3-chloro-benzoyl)-amino]-5,6,7,8-tetrahydro-imidazo[1,2-a]pyridine-3-carboxylic acid (1-naphthalen-2-yl-ethyl)-amide] here?
A: Its value is 41%.

Q: How did the “BTX inhibition (rat) (% inhibition)” value turn out when `CN(C(=O)c1ccccc1)c1nc2n(c1C(=O)NC(c1ccccc1)c1ccc(Cl)cc1)CCCC2` (centres unmarked) [Example 166, 2-(benzoyl-methyl-amino)-5,6,7,8-tetrahydro-imidazo[1,2-a]pyridine-3-carboxylic acid [(4-chloro-phenyl)-phenyl-methyl]-amide] was run?
A: The value was 72%.
